Source: PubChem BioAssay AID2753 (Vanderbilt High Throughput Screening Facility, 2010)
The source made the active and inactive calls. How the calls were made is not given here.

Molecular target: ATP-sensitive inward rectifier potassium channel 1 (Homo sapiens) (UniProt P48048)
Experiment: ROMK channel inhibitor potency, dose response, cell-based, thallium flux, HEK293 (AID 2753)
Settings: fluorescence

ATP-sensitive inward rectifier potassium channel 1 (Homo sapiens), sequence (P48048 whole entry, looked up): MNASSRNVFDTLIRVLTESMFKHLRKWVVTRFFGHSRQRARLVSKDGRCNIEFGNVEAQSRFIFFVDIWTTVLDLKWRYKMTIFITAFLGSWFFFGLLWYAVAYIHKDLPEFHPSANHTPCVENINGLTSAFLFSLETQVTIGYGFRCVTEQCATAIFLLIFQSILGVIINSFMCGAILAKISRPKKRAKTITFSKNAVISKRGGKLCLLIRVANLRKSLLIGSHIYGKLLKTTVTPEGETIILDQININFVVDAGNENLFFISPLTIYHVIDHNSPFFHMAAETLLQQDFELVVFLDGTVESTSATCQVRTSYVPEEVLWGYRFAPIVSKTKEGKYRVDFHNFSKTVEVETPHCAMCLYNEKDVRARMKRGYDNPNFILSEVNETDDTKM

**Q.** Which IC50 does the source give for CCOc1cc(C)c(Cl)cc1S(=O)(=O)NC1CC(C)(C)NC(C)(C)C1 here?
**A.** 82.8 µM

**Q.** Cc1ccc(C2=NOC(=O)/C2=C\c2ccc(C)o2)cc1 was tested. Which IC50 did it give?
**A.** 5.22 µM

**Q.** For O=C(c1ccc([N+](=O)[O-])cc1)N(Cc1ccc(Br)cc1)N1C(=O)CCCC1=O, which IC50 is on record?
**A.** 0.32 µM

**Q.** Which IC50 does the source give for COc1ccc(NC(=O)/C(C#N)=C/c2ccc(Sc3nncn3C)c([N+](=O)[O-])c2)cc1 here?
**A.** 4.29 µM

**Q.** Which IC50 does the source give for COC(=O)Cn1cc(/C=C/[N+](=O)[O-])c2ccccc21 here?
**A.** 63 µM

**Q.** How did the IC50 turn out when CCCNC(=O)c1nnsc1S(=O)(=O)c1ccc(Cl)cc1 was run?
**A.** 9.69 µM

**Q.** How did the IC50 turn out when O=C1ON=C(c2cccc([N+](=O)[O-])c2)/C1=C/c1ccc(O)cc1 was run?
**A.** 5.68 µM

**Q.** c1csc(CNc2ncnc3sccc23)c1 was tested. Which IC50 did it give?
**A.** inactive

**Q.** N#Cc1nc(-c2cccs2)oc1NCc1ccccc1 was tested. Which IC50 did it give?
**A.** 7.04 µM

**Q.** With CCc1cccc(NC(=O)CSC2=NS(=O)(=O)c3ccccc32)c1 as the molecule, how does the IC50 read?
**A.** inactive

**Q.** For CS(=O)(=O)N1CCc2cc(-c3csc(NC(=O)Cc4cccs4)n3)ccc21, which IC50 is on record?
**A.** inactive

**Q.** Which IC50 does the source give for O=C(O)c1ccc(Cn2cnc3scc(-c4ccccc4)c3c2=O)cc1 here?
**A.** 9.85 µM

**Q.** With COC(=O)/C=C1/SC(=NC(=O)c2ccc(F)cc2)NC1=O as the molecule, how does the IC50 read?
**A.** 19.1 µM

**Q.** For Cc1cc(NC(=O)/C=C/C(=O)N(CC(=O)NC2CCCC2)c2cccc3ccccc23)no1, which IC50 is on record?
**A.** 9.96 µM

**Q.** How did the IC50 turn out when COc1cccc(C(c2nnnn2Cc2ccccc2)N2CCN(C3CCCC3)CC2)c1OC (stereo not drawn) was run?
**A.** 35.6 µM

**Q.** For CCCC(=O)OCCNc1cc(Sc2nccn2C)c2nonc2c1[N+](=O)[O-], which IC50 is on record?
**A.** 157 µM

**Q.** O=C(NCc1cccnc1)/C(=C/c1ccc(-c2cccc(Cl)c2)o1)S(=O)(=O)c1ccccc1 was tested. Which IC50 did it give?
**A.** inactive

**Q.** For Cc1nn(-c2ccccc2)c(Cl)c1/C=C(\C#N)C(=O)NC(C)C, which IC50 is on record?
**A.** 45.5 µM

**Q.** With O=C(CCl)N(c1ccccc1)c1ccccc1 as the molecule, how does the IC50 read?
**A.** inactive

**Q.** With CC1CCCCC1NC(=O)/C(C#N)=C/c1ccccc1F (stereo not drawn) as the molecule, how does the IC50 read?
**A.** 4.75 µM

**Q.** Which IC50 does the source give for N#CC1=C(N)N(c2ccccc2)C(c2cccc([N+](=O)[O-])c2)C1(C#N)C#N (stereo not drawn) here?
**A.** 11.5 µM

**Q.** How did the IC50 turn out when CCCCNC(=O)/C(C#N)=C/c1ccc(F)cc1F was run?
**A.** 3.93 µM

**Q.** With CC(NC(=O)/C(C#N)=C/c1cccs1)c1ccccc1 (stereo not drawn) as the molecule, how does the IC50 read?
**A.** 69.5 µM

**Q.** With O=c1c2ccccc2nc(/C=C/c2ccc([N+](=O)[O-])o2)n1CCCO as the molecule, how does the IC50 read?
**A.** inactive

**Q.** For N#C/C(=C\c1ccncc1)c1nc2ccccc2[nH]1, which IC50 is on record?
**A.** inactive

**Q.** COc1ccc(NC(=O)/C(Cl)=C(/Cl)S(=O)Cc2ccccc2)cn1 (stereo not drawn) was tested. Which IC50 did it give?
**A.** 1.21 µM

**Q.** How did the IC50 turn out when CCCNc1nc(Cl)nc(NC(C)(C)C)n1 was run?
**A.** 2.78 µM

**Q.** How did the IC50 turn out when CCCS(=O)(=O)c1nnnn1-c1cccc(OC)c1 was run?
**A.** inactive

**Q.** How did the IC50 turn out when Cc1cccc(C2c3[nH]c4ccccc4c3CCN2C(=O)c2nn(C)c(=O)c3ccccc23)n1 (stereo not drawn) was run?
**A.** inactive

**Q.** Which IC50 does the source give for Cc1cc(C)c(C)c(S(=O)(=O)NC2CCN(Cc3ccccc3)CC2)c1C here?
**A.** 17 µM

**Q.** Which IC50 does the source give for CC(=O)c1ccc(N/N=C(/C(N)=O)C2=NC(C)(C)Cc3ccccc32)cc1 here?
**A.** 26.9 µM

**Q.** For CCCNC(=O)c1nnsc1S(=O)c1ccc(Cl)cc1 (stereo not drawn), which IC50 is on record?
**A.** 2.8 µM

**Q.** Cc1c(Nc2cc(Cl)c3nonc3c2[N+](=O)[O-])c(=O)n(-c2ccccc2)n1C was tested. Which IC50 did it give?
**A.** 52.8 µM

**Q.** With CNC(=O)c1nnsc1S(=O)(=O)c1ccc(Cl)cc1 as the molecule, how does the IC50 read?
**A.** 7.46 µM

**Q.** Which IC50 does the source give for O=C1C=CC(=O)C(C2=C3C(=O)N(CCc4ccccc4)CC(=O)N3CCC2)=C1 here?
**A.** 13 µM

**Q.** With O=C1CCCCCN1Sc1ccccc1 as the molecule, how does the IC50 read?
**A.** 4.49 µM

**Q.** O=C(Cn1nc(Cl)nc1Cl)c1cc2ccccc2oc1=O was tested. Which IC50 did it give?
**A.** 18 µM

**Q.** Which IC50 does the source give for CCCn1c(=S)[nH]c2cc(C(=O)N3CCCC(C(=O)OCC)C3)ccc2c1=O (stereo not drawn) here?
**A.** inactive

**Q.** For CN(C)c1nc(C=C(C#N)C#N)c(Cl)n1-c1ccc(F)cc1, which IC50 is on record?
**A.** 2.98 µM

**Q.** Which IC50 does the source give for COc1cc(/C=C(\C#N)C(=O)Nc2ccccc2C(=O)O)cc(Cl)c1OC here?
**A.** 3.3 µM

**Q.** CN(C)c1cc(O)c(C(=S)Nc2ccccc2)c(N(C)C)c1 was tested. Which IC50 did it give?
**A.** 75.5 µM

**Q.** Which IC50 does the source give for O=C1C=C(c2ccccc2)C(=O)N1Nc1ccccc1 here?
**A.** 2.77 µM

**Q.** With CCOc1ccccc1N(CC(=O)N1CCOCC1)S(=O)(=O)c1ccc(SC)cc1 as the molecule, how does the IC50 read?
**A.** 1.4 µM

**Q.** For O=C(/C(=C/c1ccc(Cl)cc1)c1nc2ccccc2[nH]1)c1cccs1, which IC50 is on record?
**A.** 4.56 µM

**Q.** With N#Cc1cccc(N=c2ssnc2Cl)c1 as the molecule, how does the IC50 read?
**A.** 8.39 µM

**Q.** With COc1cc(NC(=O)C2CCN(S(=O)(=O)c3ccc(Cl)cc3)CC2)ccc1-n1cnnn1 as the molecule, how does the IC50 read?
**A.** 2.1 µM

**Q.** For CC(=O)/C(=C/c1ccccc1)C(=O)Nc1ccccc1C, which IC50 is on record?
**A.** 23 µM

**Q.** With O=C(/C=C/c1cn(CC(O)CN2CCCCC2)c2ccccc12)c1ccccc1 (stereo not drawn) as the molecule, how does the IC50 read?
**A.** inactive

**Q.** For N#C/C(=C/c1cc(Br)cs1)C(=O)NCC1CCCO1 (stereo not drawn), which IC50 is on record?
**A.** inactive

**Q.** How did the IC50 turn out when Cc1c(N2C(=O)/C(=C\C3CC=CCC3)SC2=S)c(=O)n(-c2ccccc2)n1C (stereo not drawn) was run?
**A.** 2.66 µM

**Q.** How did the IC50 turn out when COc1ccc2c(c1OC)C(=O)OC2Nc1nc(-c2cc3ccccc3oc2=O)cs1 (stereo not drawn) was run?
**A.** inactive

**Q.** Which IC50 does the source give for CCOC(=O)C(=Cc1ccc(-n2cncn2)cc1)C(=O)OCC here?
**A.** 95.8 µM

**Q.** How did the IC50 turn out when N#C/C(=C\c1cccc(Oc2ccccc2)c1)C(=O)N1CCOCC1 was run?
**A.** 6.57 µM

**Q.** With Cc1ccc(N2C(=O)NC(=O)/C(=C\C=C\c3ccco3)C2=O)cc1C as the molecule, how does the IC50 read?
**A.** 2.33 µM

**Q.** Which IC50 does the source give for N#C/C(=C/c1ccncc1)c1nc2ccccc2s1 here?
**A.** 2.68 µM

**Q.** For O=C(O)c1cccc(CN2C(=O)S/C(=C/c3cccc([N+](=O)[O-])c3)C2=O)c1, which IC50 is on record?
**A.** 5.71 µM

**Q.** CCOC(=O)c1ccc(-n2c(O)c(/C=N/NC(=O)C3COc4ccccc4O3)c3ccccc3c2=O)cc1 (stereo not drawn) was tested. Which IC50 did it give?
**A.** inactive

**Q.** CCN(CC)S(=O)(=O)c1ccc(OC)c(NC(=O)CSc2cc(C)ccc2C)c1 was tested. Which IC50 did it give?
**A.** 12.8 µM

**Q.** Cc1cc(Cl)c(S(=O)(=O)Nc2ccc3c(c2)OCCO3)cc1OCC(=O)NC1CCCCC1 was tested. Which IC50 did it give?
**A.** 3.55 µM

**Q.** Which IC50 does the source give for CC(C(=O)c1ccc(-c2ccccc2)cc1)[n+]1cccc(NC(=O)c2ccccc2)c1 (stereo not drawn) here?
**A.** 27.9 µM

**Q.** For O=C(Cn1nc(CNc2ccc(Cl)cc2)[n+]2c1CCCCC2)c1ccc(Cl)cc1, which IC50 is on record?
**A.** 5.52 µM

**Q.** With CN(C)CCNC(=O)/C(=C/c1ccc(-c2ccc(Cl)cc2)o1)NC(=O)c1ccccc1 as the molecule, how does the IC50 read?
**A.** inactive

**Q.** CC1=NOC(=O)/C1=C\c1ccc(-c2ccccc2Br)o1 was tested. Which IC50 did it give?
**A.** inactive

**Q.** How did the IC50 turn out when C=CCNC(=O)/C(C#N)=C\c1cc(Cl)c(OCC)c(OC)c1 was run?
**A.** 86.8 µM

**Q.** CSc1ccc(/C=C(\C#N)C(=O)NC2CCCCC2C)cc1 (stereo not drawn) was tested. Which IC50 did it give?
**A.** 3.24 µM

**Q.** With O=C(c1nnsc1S(=O)c1ccc(Cl)cc1)N1CCOCC1 (stereo not drawn) as the molecule, how does the IC50 read?
**A.** 2.2 µM

**Q.** How did the IC50 turn out when O=C1N=C2SCCN2/C1=C\c1ccc(Cl)cc1 was run?
**A.** 4.79 µM

**Q.** How did the IC50 turn out when N#CC1=C(N)N(c2ccccc2)C(c2ccccc2)C1(C#N)C#N (stereo not drawn) was run?
**A.** 32.2 µM

**Q.** Cc1cc(C)n2nc(/C(C#N)=C/c3ccccn3)c(C#N)c2n1 was tested. Which IC50 did it give?
**A.** 88.3 µM

**Q.** How did the IC50 turn out when O=C(CCl)N(Cc1cccc([N+](=O)[O-])c1)c1cccc(Cl)c1 was run?
**A.** 9.65 µM

**Q.** For CC(C)c1[nH]nc2c1C(c1cccs1)C(C#N)=C(N)O2 (stereo not drawn), which IC50 is on record?
**A.** inactive

**Q.** Which IC50 does the source give for CC1CCCCC1NC(=O)CN1C(=O)CSc2cc(S(=O)(=O)N3CCCCCC3)ccc21 (stereo not drawn) here?
**A.** 55.3 µM

**Q.** Which IC50 does the source give for CC(=O)c1c(C)nc(-c2cccc([N+](=O)[O-])c2)n1O here?
**A.** inactive
